# According to ChEMBL document CHEMBL5543097, “Synthesis and structure-activity relationships of novel 14-membered 2-fluoro ketolides with structural modification at the C11 position” (Eur J Med Chem, 2024):
# Activity calls are given as the source filed them. No cut-off for these calls is given here.
# Key:
# [1] = test system: Staphylococcus epidermidis; assay: Potency index, ratio of telithromycin MIC to test compound MIC for antibacterial activity against erythromycin-resistant Staphylococcus epidermidis 19-6 assessed as inhibition of visible bacterial growth incubated for 18 hrs by broth microdilution method; type: functional
# Haemophilus influenzae [2] = assay: Antibacterial activity against Haemophilus influenzae HIN 19-15 assessed as inhibition of bacterial growth incubated for 20 to 24 hrs by CLSI based broth microdilution method; type: functional; conditions: time 20-24 hrs
# Streptococcus pneumoniae [3] = assay: Antibacterial activity against erythromycin-resistant Streptococcus pneumoniae SPN19-14 assessed as inhibition of visible bacterial growth incubated for 18 hrs by broth microdilution method; type: functional
# Streptococcus pneumoniae [4] = assay: Potency index, ratio of telithromycin MIC to test compound MIC for antibacterial activity against Streptococcus pneumoniae SPN19-14 assessed as inhibition of visible bacterial growth incubated for 18 hrs by broth microdilution method; type: functional
# Haemophilus influenzae [5] = assay: Antibacterial activity against Haemophilus influenzae HIN 19-18 assessed as inhibition of bacterial growth incubated for 20 to 24 hrs by CLSI based broth microdilution method; type: functional; conditions: HIN 19-18, time 20-24 hrs
# Moraxella catarrhalis [6] = assay: Antibacterial activity against Moraxella catarrhalis BCA 19-6 assessed as inhibition of bacterial growth incubated for 24 hrs by CLSI based broth microdilution method; type: functional; conditions: Moraxella catarrhalis, BCA 19-6, 24 h, read-out: MIC
# Streptococcus agalactiae [7] = assay: Antibacterial activity against erythromycin-resistant Streptococcus agalactiae 19-8 assessed as inhibition of visible bacterial growth incubated for 18 hrs by broth microdilution method; type: functional
# [8] = test system: Staphylococcus epidermidis; assay: Antibacterial activity against erythromycin-resistant Staphylococcus epidermidis 19-4 assessed as inhibition of visible bacterial growth incubated for 18 hrs by broth microdilution method; type: functional
# [9] = test system: Staphylococcus epidermidis; assay: Antibacterial activity against erythromycin-resistant Staphylococcus epidermidis 19-11 assessed as inhibition of visible bacterial growth incubated for 18 hrs by broth microdilution method; type: functional
# [10] = test system: Staphylococcus epidermidis; assay: Antibacterial activity against erythromycin-resistant Staphylococcus epidermidis 19-8 assessed as inhibition of visible bacterial growth incubated for 18 hrs by broth microdilution method; type: functional
# Streptococcus pyogenes = assay: Antibacterial activity against erythromycin-resistant Streptococcus pyogenes ATCC 19615 assessed as inhibition of visible bacterial growth incubated for 18 hrs by broth microdilution method; type: functional
# Streptococcus pneumoniae [11] = assay: Antibacterial activity against erythromycin-resistant Streptococcus pneumoniae SPN19-13 assessed as inhibition of visible bacterial growth incubated for 18 hrs by broth microdilution method; type: functional
# Streptococcus pneumoniae [12] = assay: Antibacterial activity against erythromycin-resistant Streptococcus pneumoniae SPN19-8 assessed as inhibition of visible bacterial growth incubated for 18 hrs by broth microdilution method; type: functional
# [13] = test system: Staphylococcus epidermidis; assay: Potency index, ratio of telithromycin MIC to test compound MIC for antibacterial activity against erythromycin-resistant Staphylococcus epidermidis 19-9 assessed as inhibition of visible bacterial growth incubated for 18 hrs by broth microdilution method; type: functional
# [14] = test system: Staphylococcus epidermidis; assay: Potency index, ratio of telithromycin MIC to test compound MIC for antibacterial activity against erythromycin-resistant Staphylococcus epidermidis 19-4 assessed as inhibition of visible bacterial growth incubated for 18 hrs by broth microdilution method; type: functional
# Streptococcus pneumoniae [15] = assay: Potency index, ratio of telithromycin MIC to test compound MIC for antibacterial activity against Streptococcus pneumoniae SPN19-13 assessed as inhibition of visible bacterial growth incubated for 18 hrs by broth microdilution method; type: functional
# Moraxella catarrhalis [16] = assay: Antibacterial activity against Moraxella catarrhalis BCA 19-5 assessed as inhibition of bacterial growth incubated for 24 hrs by CLSI based broth microdilution method; type: functional; conditions: Moraxella catarrhalis, BCA 19-5, 24 h, read-out: MIC
# Moraxella catarrhalis [17] = assay: Antibacterial activity against Moraxella catarrhalis BCA 19-31 assessed as inhibition of bacterial growth incubated for 24 hrs by CLSI based broth microdilution method; type: functional; conditions: BCA 19-31, 24 h
# Streptococcus pneumoniae [18] = assay: Potency index, ratio of telithromycin MIC to test compound MIC for antibacterial activity against Streptococcus pneumoniae SPN19-8 assessed as inhibition of visible bacterial growth incubated for 18 hrs by broth microdilution method; type: functional
# [19] = test system: Staphylococcus epidermidis; assay: Potency index, ratio of telithromycin MIC to test compound MIC for antibacterial activity against erythromycin-resistant Staphylococcus epidermidis 19-11 assessed as inhibition of visible bacterial growth incubated for 18 hrs by broth microdilution method; type: functional
# [20] = test system: Staphylococcus epidermidis; assay: Antibacterial activity against erythromycin-resistant Staphylococcus epidermidis 19-9 assessed as inhibition of visible bacterial growth incubated for 18 hrs by broth microdilution method; type: functional
# [21] = test system: Staphylococcus epidermidis; assay: Potency index, ratio of telithromycin MIC to test compound MIC for antibacterial activity against erythromycin-resistant Staphylococcus epidermidis 19-5 assessed as inhibition of visible bacterial growth incubated for 18 hrs by broth microdilution method; type: functional
# [22] = test system: Staphylococcus epidermidis; assay: Antibacterial activity against erythromycin-resistant Staphylococcus epidermidis 19-5 assessed as inhibition of visible bacterial growth incubated for 18 hrs by broth microdilution method; type: functional
# Streptococcus agalactiae [23] = assay: Antibacterial activity against erythromycin-resistant Streptococcus agalactiae 19-9 assessed as inhibition of visible bacterial growth incubated for 18 hrs by broth microdilution method; type: functional
# [24] = test system: Staphylococcus epidermidis; assay: Antibacterial activity against erythromycin-resistant Staphylococcus epidermidis 19-6 assessed as inhibition of visible bacterial growth incubated for 18 hrs by broth microdilution method; type: functional
# [25] = test system: Staphylococcus epidermidis; assay: Potency index, ratio of telithromycin MIC to test compound MIC for antibacterial activity against erythromycin-resistant Staphylococcus epidermidis 19-8 assessed as inhibition of visible bacterial growth incubated for 18 hrs by broth microdilution method; type: functional
# [26] = Cytotoxicity against mouse AML12 cells assessed as reduction in cell viability incubated for 48 hrs by MTT assay; type: toxicity, cell-based
# Escherichia coli = assay: Antibacterial activity against Escherichia coli ATCC 35218 assessed as inhibition of visible bacterial growth; type: functional, organism-based
# [27] = Metabolic stability in human liver microsome assessed as intrinsic clearance measured at 60 mins by LC-MS/MS analysis; type: ADME; conditions: liver microsomes, read-out: CLH
# Haemophilus influenzae [28] = assay: Antibacterial activity against Haemophilus influenzae HIN 20-18 assessed as inhibition of bacterial growth incubated for 20 to 24 hrs by CLSI based broth microdilution method; type: functional; conditions: time 20-24 hrs
# [29] = Metabolic stability in human liver microsome assessed as parent compound remaining in absence of NADPH measured at 60 mins by LC-MS/MS analysis; type: ADME; conditions: liver microsomes, read-out: Stability
# [30] = Metabolic stability in human liver microsome assessed as parent compound remaining in presence of NADPH measured at 60 mins by LC-MS/MS analysis; type: ADME; conditions: liver microsomes, read-out: Stability
# [31] = Metabolic stability in human liver microsome assessed as half life measured at 60 mins by LC-MS/MS analysis; type: ADME; conditions: liver microsomes
SMILES,Ratio [1],MIC (Haemophilus influenzae [2]) [µg/mL],MIC (Streptococcus pneumoniae [3]) [µg/mL],Ratio (Streptococcus pneumoniae [4]),MIC (Haemophilus influenzae [5]) [µg/mL],MIC (Moraxella catarrhalis [6]) [µg/mL],MIC [8] [µg/mL],MIC [9] [µg/mL],MIC [10] [µg/mL],MIC (Streptococcus pyogenes) [µg/mL],MIC (Streptococcus pneumoniae [11]) [µg/mL],MIC (Streptococcus pneumoniae [12]) [µg/mL],Ratio [13],Ratio [14],Ratio (Streptococcus pneumoniae [15]),MIC (Moraxella catarrhalis [16]) [µg/mL],MIC (Moraxella catarrhalis [17]) [µg/mL],Ratio (Streptococcus pneumoniae [18]),Ratio [19],MIC [20] [µg/mL],other results
CC[C@H]1OC(=O)[C@@](C)(F)C(=O)[C@H](C)[C@@H](O[C@@H]2O[C@H](C)C[C@H](N(C)C)[C@H]2O)[C@](C)(OC)C[C@@H](C)C(=O)[C@H](C)[C@H]2N(CCCOC(=O)Nc3cccc(F)c3)C(=O)O[C@]12C,4,8,< 0.03,<4,4,< 0.03,< 0.03,< 0.03,< 0.03,< 0.03,< 0.03,< 0.03,4,4,<4,< 0.03,< 3,<4,4,< 0.03,MIC (Streptococcus agalactiae [7]): < 0.03 µg/mL; Ratio [21]: 4; MIC [22]: < 0.03 µg/mL; MIC (Streptococcus agalactiae [23]): 0.06 µg/mL; MIC [24]: < 0.03 µg/mL; Ratio [25]: 4; CC50 at 48 h [26]: 33.7 µM; Activity (Escherichia coli): Active
CC[C@H]1OC(=O)[C@@](C)(F)C(=O)[C@H](C)[C@@H](O[C@@H]2O[C@H](C)C[C@H](N(C)C)[C@H]2O)[C@](C)(OC)C[C@@H](C)C(=O)[C@H](C)[C@H]2N(CCCOC(=O)Nc3ccc4c(c3)CCO4)C(=O)O[C@]12C,4,8,0.06,<4,2,0.125,0.03,< 0.03,0.03,< 0.03,0.6,0.06,4,4,<4,0.06,0.06,<4,4,0.06,microsomal CLint [27]: 341 µL/min/mg; MIC (Haemophilus influenzae [28]): 8 µg/mL; remaining at 1 h [29]: 89.4%; remaining at 1 h [30]: 0.3%; Ratio [21]: 4; MIC [22]: < 0.03 µg/mL; MIC (Streptococcus agalactiae [23]): 2 µg/mL; MIC [24]: 0.06 µg/mL; Ratio [25]: 4; half-life [31]: 2 min; CC50 at 48 h [26]: > 100 µM
CC[C@H]1OC(=O)[C@@](C)(F)C(=O)[C@H](C)[C@@H](O[C@@H]2O[C@H](C)C[C@H](N(C)C)[C@H]2O)[C@](C)(OC)C[C@@H](C)C(=O)[C@H](C)[C@H]2N(CCCOC(=O)Nc3ccc(F)cc3)C(=O)O[C@]12C,4,4,< 0.03,<4,2,0.03,< 0.03,< 0.03,< 0.03,< 0.03,< 0.03,< 0.03,4,4,<4,0.03,0.03,<4,4,0.06,MIC (Streptococcus agalactiae [7]): < 0.03 µg/mL; microsomal CLint [27]: 183 µL/min/mg; remaining at 1 h [29]: 95%; remaining at 1 h [30]: 0.4%; Ratio [21]: 4; MIC [22]: < 0.03 µg/mL; MIC (Streptococcus agalactiae [23]): 0.25 µg/mL; MIC [24]: < 0.03 µg/mL; Ratio [25]: 4; half-life [31]: 3.8 min; CC50 at 48 h [26]: 97.9 µM
